Source: patent US20210290818A1, “SCAFFOLDING MATERIAL, METHODS AND USES” (LOCATE THERAPEUTICS LIMITED, priority 2016, published 2021)
Where a name gives a salt, the structure may show the parent alone.

Assay: In house cohesion test of pastes (mass loss after sintering and immersion in water)
Assay type: physicochemical
Settings: for Effect of plasticiser in liquid carrier on paste cohesion: PLGA 95:5/PEG400/CS pellets, FIG. 4
Method: Pastes were prepared by mixing particles with a liquid carrier and their setting was assessed using an ‘in house’ cohesion test. Briefly, following paste sintering, aluminium foils containing the pastes were placed onto a sieve mesh and immersed to a depth of around 1 cm of water for 1 minute (FIG. 1). Afterwards, they were carefully removed from the sieve. The samples were freeze-dried and weighed so that mass loss could be estimated.
A 355 μm sieve (Endecotts, BS410/1986) was placed on to its dedicated collection tray. • 2×100 mg of particles were manually mixed in an aluminium foil (4×4 cm circa) with 70 μl of each liquid carrier. • The obtained pastes were left to sinter in a sealed plastic bag with humidity >90% for different times. • Following sintering at RT or 37° C. in a humidified environment (>90% RH), the aluminium foils containing the pastes were placed onto the sieve mesh. • A constant, gentle, circa 7 ml/sec flow of water (Millipore, Direct-Q® 3 UV) was applied to the sieve mesh, until the samples became immersed in circa 1 cm of water. • Following immersion, samples were allowed to remain immersed in the head of water for circa 1 minute. • After the 1 minute, the sieve was removed from the sieve tray and the aluminium foils containing the samples were carefully removed from the sieve. • The samples with the aluminium foil were freeze-dried and weighed so that mass loss could be estimated. • The sieve tray (which was still filled with water) was visually inspected for the presence of particles that may have been lost from the samples during.

Row | SMILES | Effect of plasticiser in liquid carrier on paste cohesion | Importance of plasticiser in liquid carrier for paste setting (PLGA50:50/PEG400/SIM pellets, sintering 10 to 60 min at 37° C., FIG. 6)
1 | CCOC(=O)CC(O)(CC(=O)OCC)C(=O)OCC [TEC, TriEthyl Citrate] | behave in a similar way | 
2 | CCO [ethanol, Ethanol] |  | not important for paste setting
3 | CC(=O)OCC(COC(C)=O)OC(C)=O [TA, triacetin] | behave in a similar way | 
